{"source": "patent EP0511903B1", "about": "“Conjugate of calcitonin and polyethylene glycol” (TEVA PHARMACEUTICAL INDUSTRIES LTD., priority 1991, dated 1998)", "test_system": "2 anticorps monoclonaux reconnaissant 2 épitopes différents sur la calcitonine humaine", "assay": "Immunoradiometric assay (IRMA) for human calcitonin using 2 monoclonal antibodies", "format": "binding", "conditions": "IRMA with 2 monoclonal antibodies", "excerpt": "Un conjugué de polyéthylène glycol aminé couplé sur l'acide aspartique de la calcitonine humaine a été synthétisé suivant la méthode décrite à l'exemple 2. On dispose d'un dosage immunoradiométrique pour la Calcitonine humaine, utilisant 2 anticorps monoclonaux reconnaissant 2 épitopes différents sur la calcitonine humaine. Par ce dosage, le dérivé PEG-NH2-CTH n'est plus reconnu qu'à 0.4 % par rapport à la calcitonine humaine. Ceci signifie qu'au moins un épitope de la calcitonine humaine se trouve masqué par le couplage en position 15 d'une molécule de PEG. Il y a donc une modification de l'antigénicité de la calcitonine, de par son couplage au PEG, qui diminue fortement sa reconnaissance par des anticorps.", "note": "Ends that are not written are not given here. amino‑PEG = not defined here", "data": [{"substance": "PEG NH2-CThumaine: conjugué de polyéthylène glycol aminé couplé sur l'acide aspartique (position 15) de la calcitonine humaine (CGNLSTCMLGTYTQD(amino‑PEG)FNKFHTFPQTAIGVGAP; ends and bridges not checked; UniProt P01258 85-116, looked up)", "values": [{"measurement": "reconnaissance par rapport à la calcitonine humaine", "result": 0.4, "unit": "%"}]}]}
